Assay results taken from article PMC5377415, “Thermo‐kinetic analysis space expansion for cyclophilin‐ligand interactions – identification of a new nonpeptide inhibitor using Biacore™ T200” (FEBS Open Bio, 2017).

Target: T1, His-tagged human cyclophilin-A (His-CypA) (Homo sapiens, UniProt P62937)
T1 construct: gene PPIA; full length M1-E165, codon-optimised, E. coli C41
Assay: SPR (Biacore T200), […] Langmuir fit, captured and stabilised His-CypA
Assay type: binding

T1 sequence (P62937 whole entry): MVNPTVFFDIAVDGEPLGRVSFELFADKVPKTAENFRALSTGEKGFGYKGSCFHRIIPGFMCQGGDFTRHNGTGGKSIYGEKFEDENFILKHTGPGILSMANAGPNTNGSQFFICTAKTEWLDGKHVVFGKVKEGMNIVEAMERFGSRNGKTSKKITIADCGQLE

Compound Nc1cccnc1N [2,3-diaminopyridine] has a Kd of 248 ± 60 µM.
